Measured values from US12551463B2, “Dosing of a Bruton's tyrosine kinase inhibitor” (Loxo Oncology, Inc., priority 2019, dated 2026).
Where two headings read alike, the source gives them in different places.

Assay: Phase 1/2 clinical study: pharmacokinetics in cancer patients
Assay type: in vivo, human
Settings: for concentration at 2 h / concentration at 4 h / concentration at 8 h / concentration at 24 h / half-life / Cmax / Tmax / concentration at 0 h / concentration at 1 h: human, plasma, oral; for concentration at 2 h / concentration at 4 h / concentration at 8 h / concentration at 24 h / concentration at 0 h / concentration at 1 h: read-out: Mean patient plasma CONC (SD); for concentration at 24 h: 24 hr (not measured, inferred based on predose); for Cmax: read-out: Cmax Geo mean (% CV); for Tmax: read-out: Tmax Median (min, max)
From the text: The study is an open-label, multi-center study of oral BTK-I to evaluate safety and efficacy as monotherapy and as part of combination therapy in patients with CLL/SLL and NHL who have failed or are intolerant to standard of care. This study includes monotherapy as well as combination treatment parts. The monotherapy part includes Phase 1 dose escalation and dose expansion as well as Phase 2. The combination therapy part is a Phase 1b (safety assessment and expansion) of BTK-I in combination with venetoclax, with or without anti-CD20 therapy. Phase 1 dose escalation will proceed prior to start of Phase 1b or Phase 2. Once a recommended Phase 2 dose (RP2D) is identified in Phase 1, enrollment can commence to the Phase 1b combination therapies and Phase 2 monotherapy cohorts.
BTK-I is administered in oral tablet form. Dose escalation will follow a 3+3 design starting with a 25 mg QD dose (followed by 50 mg QD (dose level cohort 2), 100 mg QD (dose level cohort 3), 150 mg QD (dose level cohort 4), 200 mg QD (dose level cohort 5), 250 mg QD (dose level cohort 6), and 300 mg QD (dose level cohort 7)). Cycle length will be 28 days. The drug limiting toxicity (DLT) period will be 28 days, commencing with the first dose of BTK-I.
The pharmacokinetic profiles and adverse events for BTK-I doses are summarized in the below tables.
Pharmacokinetic Parameters of BTK-I—in Cancer Patients at Steady State (Cycle 1 Day 8)

[1] = 100 mg QD, steady state (Cycle 1 Day 8), N=9
[2] = 150 mg QD, steady state (Cycle 1 Day 8), N=20
[3] = 200 mg QD, steady state (Cycle 1 Day 8), N=99
[4] = 300 mg QD, steady state (Cycle 1 Day 8), N=17

COc1ccc(F)cc1C(=O)NCc1ccc(-c2nn([C@@H](C)C(F)(F)F)c(N)c2C(N)=O)cc1 [BTK-I, (S)-5-amino-3-(4-((5-fluoro-2-methoxybenzamido)methyl)phenyl)-1-(1,1,1-trifluoropropane-2-yl)-1H-pyrazole-4-carboxamide]
concentration at 2 h (50 mg): 1300 ng/mL
concentration at 4 h (50 mg): 1170 ng/mL
concentration at 8 h (50 mg): 1020 ng/mL
concentration at 24 h (50 mg): 571 ng/mL
half-life (100 mg QD, steady state (Cycle 1 Day 8), N = 8, % CV 33.9%, read-out: T1/2 Geo mean (% CV) (converted)): 22.2 h
Cmax [1]: 3910 ng/mL
Tmax [1]: 2 h
concentration at 0 h (100 mg): 1580 ng/mL
concentration at 1 h (100 mg): 2170 ng/mL
concentration at 2 h (100 mg): 3670 ng/mL
concentration at 4 h (100 mg): 2800 ng/mL
concentration at 8 h (100 mg): 2360 ng/mL
concentration at 24 h (100 mg): 1580 ng/mL
Cmax [2]: 4680 ng/mL
Tmax [2]: 2 h
concentration at 0 h (150 mg): 1800 ng/mL
concentration at 1 h (150 mg): 3670 ng/mL
concentration at 2 h (150 mg): 4640 ng/mL
concentration at 4 h (150 mg): 3660 ng/mL
concentration at 8 h (150 mg): 3320 ng/mL
concentration at 24 h (150 mg): 1800 ng/mL
half-life (200 mg QD, steady state (Cycle 1 Day 8), N = 64, % CV 56.2%, read-out: T1/2 Geo mean (% CV) (converted)): 19.9 h
Cmax [3]: 5770 ng/mL
Tmax [3]: 2 h
concentration at 0 h (200 mg): 2770 ng/mL
concentration at 1 h (200 mg): 4940 ng/mL
concentration at 2 h (200 mg): 6160 ng/mL
concentration at 4 h (200 mg): 5270 ng/mL
concentration at 8 h (200 mg): 4660 ng/mL
concentration at 24 h (200 mg): 2770 ng/mL
half-life (250 mg QD, steady state (Cycle 1 Day 8), N = 21, % CV 50.6%, read-out: T1/2 Geo mean (% CV) (converted)): 17.4 h
Tmax (250 mg QD, steady state (Cycle 1 Day 8), N=25): 2 h
concentration at 0 h (250 mg): 3160 ng/mL
concentration at 1 h (250 mg): 6910 ng/mL
concentration at 2 h (250 mg): 7870 ng/mL
concentration at 4 h (250 mg): 6840 ng/mL
concentration at 8 h (250 mg): 5500 ng/mL
concentration at 24 h (250 mg): 3160 ng/mL
half-life (300 mg QD, steady state (Cycle 1 Day 8), N = 16, % CV 102%, read-out: T1/2 Geo mean (% CV) (converted)): 30.1 h
Cmax [4]: 10700 ng/mL
Tmax [4]: 2 h
concentration at 0 h (300 mg): 5510 ng/mL
concentration at 1 h (300 mg): 9730 ng/mL
concentration at 2 h (300 mg): 10700 ng/mL
concentration at 4 h (300 mg): 8420 ng/mL
concentration at 8 h (300 mg): 7510 ng/mL
concentration at 24 h (300 mg): 5510 ng/mL
half-life (patients, read-out: observed half-life (converted)): ~20 h
target coverage for wild-type and C481S-mutated BTK (starting at the 50 mg QD dose, estimates from cell-based potencies): delivered >IC90 target coverage
